Converted amounts (≈) assume the structure as drawn.

For test [1], the system named is S. aureus 880 (BR-VRSA), NR-49120. Briefly: MIC assay. The format is cell-based, Staphylococcus aureus. Conditions: S. aureus 880, NR-49120 VRSA. The procedure: (§1) The antibacterial activity of the compounds was tested against a panel of bacteria, including Gram-positive bacteria (S. aureus ATCC29213, S. aureus USA300, S. aureus LIM-2, NR-45881, S. aureus HIP13419, NR-46413, E. faecium E155, E. faecium E7314, E. faecium E980, E. faecalis E1246, E. faecalis E7406 and S. pneumonia 153). The antibacterial activity of the compounds was further tested against S. aureus NY-155, NR-46236, S. aureus HIP12864, NR-46074, S. aureus 880 (BR-VRSA), NR-49120, E. faecalis E1246, E. faecalis E7604, as well as some Gram-negative bacteria (Escherichia coli and Klebsiella pneumoniae). Minimum inhibitory concentrations (MICs) in μg/mL were performed according to the CLSI guidelines. From glycerol stocks, bacterial strains were cultured on blood agar plates and incubated at 37° C. for 18 h. A single colony was transferred to tryptic soy broth (TSB) with 0.002% polysorbate 80 (p80). For the Enterococcus, VISA and VRSA strains, the cultures were grown at 37° C. until the optical density of the suspension reached a level equivalent to the 0.5 McFarland standard. The bacterial suspensions were diluted in TSB with 0.002% p80 to reach a bacterial cell density of 10^6 CFU/mL. In case of the other (vancomycin-sensitive) S. aureus strains, the direct colony suspension method was used. For these strains, after transfer of the colonies to TSB with 0.002% p80, they were immediately diluted to 10^6 CFU/mL, instead of incubated prior to this dilution. In the case of S. pneumonia, direct colony suspension was used by immediately suspending multiple colonies from fresh blood agar plates in TSB+0.002% p80 to an OD600 of 0.5 and subsequent dilution to 10^6 CFU mL^−1 in TSB+0.002% p80+5% lysed horse blood. Antibiotic dilutions for this strains were also made in TSB+0.002% p80+5% lysed horse blood. Both agar and microplates containing S. pneumonia were incubated at 37° C. with 5% CO2 for 24 h with constant shaking (600 rpm). […] The cultures were grown to exponential phase (OD600=0.5) at 37° C. […] In polypropylene 96-well microtiter plates, test compounds were added in biological triplicates and serial diluted 2-fold by transfer and mixing from one well to the next to achieve a final volume of 50 μL per well. An equal volume of bacterial suspension (10^6 CFU mL^−1) was added to the wells. The plates were sealed with breathable membranes and incubated at 37° C. for 24 h with constant shaking (600 rpm). In polypropylene microtiter plates, 100 μL of the test compounds was added to the first row in biological triplicates, and 50 μL of media was added to the other wells. The compounds were subjected to serial dilution by transfer and mixing of 50 μL from one well to the next. Subsequently, 50 μL of bacterial suspension (10^6 CFU/mL) was added to the wells. The plates were sealed with breathable membranes and incubated at 37° C. for 24 h with constant shaking (600 rpm). Positive growth control consisted of wells with bacterial suspension and without antibiotic. Negative growth control consisted of solely media without bacterial suspension or antibiotic. The MICs were determined from the median of a minimum of triplicates.

A further test deals with S. aureus ATCC29213. As to the kind of experiment: MIC assay. The format is cell-based, Staphylococcus aureus. Conditions: S. aureus ATCC29213 MSSA. How it is done:
as §1

Test [2] concerns S. aureus HIP12864, NR-46074. Briefly: MIC assay. The test is classed as cell-based, Staphylococcus aureus. Conditions: S. aureus HIP12864, NR-46074 VISA. How it is done:
as §1

Test [3] relates to S. aureus LIM-2, NR-25881. Briefly: MIC assay. The format is cell-based, Staphylococcus aureus. Particulars: S. aureus LIM-2, NR-25881 VISA. The procedure: as §1
Test [4] concerns S. aureus NY-155, NR-46236. As to the kind of experiment: MIC assay. The format is cell-based, Staphylococcus aureus. Particulars: S. aureus NY-155, NR-46236 MRSA. How it is done:
as §1

Test [5] has as its system S. aureus HIP13419, NR-46413. As to the kind of experiment: microbe, parasite or virus in culture. The test is classed as cell-based, Staphylococcus aureus. Conditions: S. aureus HIP13419, NR-46413 VRSA. How it is done: as §1
A further test deals with S. aureus USA300. Briefly: microbe, parasite or virus in culture. The test is classed as cell-based, Staphylococcus aureus. How it is done:
as §1

Another test deals with E. faecium E980. Briefly: MIC assay. The format is cell-based, Enterococcus faecium. Conditions: E. faecium E980 VSE. How it is done:
as §1

For a further test, the system named is E. faecium E155. As to the kind of experiment: microbe, parasite or virus in culture. Conditions: E. faecium E155 VRE (VanA). The format is cell-based, Enterococcus faecium. The procedure:
as §1

The subject of another test is E. faecium E7314. Briefly: microbe, parasite or virus in culture. The format is cell-based, Enterococcus faecium. Particulars: E. faecium E7314 VRE (VanB). How it is done:
as §1

In the next test the test system is E. faecalis E1246. Briefly: MIC assay. The format is cell-based, Enterococcus faecalis. How it is done: as §1
The test system of the next test is E. faecalis E7406. Briefly: microbe, parasite or virus in culture. The format is cell-based, Enterococcus faecalis. Particulars: E. faecalis E7406 VRE (VanB). The procedure: as §1
The test system of another test is E. faecalis E7604. Briefly: microbe, parasite or virus in culture. The test is classed as cell-based, Enterococcus faecalis. Particulars: E. faecalis E7604 VRE (vanB). How it is done: as §1
In another test the test system is S. pneumoniae 153. As to the kind of experiment: MIC assay. The format is cell-based. Particulars: S. pneumoniae 153; TSB+0.002% p80+5% lysed horse blood. The procedure: as §1
A further test relates to MRSA USA300. As to the kind of experiment: MIC assay in the presence of sheep serum. The test is classed as cell-based, Staphylococcus aureus. Particulars: MRSA USA300, TSB + 0.002% p80 + 50% sheep serum. How it is done: as §1
The activity of the compounds was further assessed against MRSA USA300 strain in the presence of sheep) serum in another MIC assay. The cultures that grew in the presence of serum used TSB+0.002% P80+50% sheep serum as growth media, as opposed to normal MICs done in only TSB+0.002% P80.

Setting [6] is: E. faecalis E1246 VRE (VanA), Table 7.
Where [7] appears, read: E. faecalis E1246 VRE (vanA), Table 9.

Consider `CCCCCCNC(N)=Nc1ccc(CNC2(C)CC(OC3C(Oc4c5cc6cc4Oc4ccc(cc4Cl)C(O)C4NC(=O)C(NC(=O)C6NC(=O)C(CC(N)=O)NC(=O)C(NC(=O)C(CC(C)C)NC)C(O)c6ccc(c(Cl)c6)O5)c5ccc(O)c(c5)-c5c(O)cc(O)cc5C(C(=O)O)NC4=O)OC(CO)C(O)C3O)OC(C)C2O)cc1` (centres unmarked) [Compound 4], for which the MIC in [1] was determined as 16 µg/mL (≈ 9.52 µM); in the test on S. aureus ATCC29213, 0.0625 µg/mL (≈ 0.0372 µM); in test [2], 0.5 µg/mL (≈ 0.298 µM); in test [3], 0.25 µg/mL (≈ 0.149 µM); in [4], 0.063 µg/mL (≈ 0.0375 µM); in test [5], 4 µg/mL (≈ 2.38 µM). Also, the MIC in the test on S. aureus USA300 (MRSA USA300, TSB + 0.002% p80) came to 0.063 µg/mL; against S. aureus USA300 (S. aureus USA300 MRSA), 0.0625 µg/mL (≈ 0.0372 µM); against E. faecium E980, 0.03125 µg/mL (≈ 0.0186 µM); with E. faecium E155, 8 µg/mL (≈ 4.76 µM); against E. faecium E7314, 0.03125 µg/mL (≈ 0.0186 µM); against E. faecalis E1246 (setting [6]), 32 µg/mL (≈ 19 µM). Besides, the MIC with E. faecalis E1246 (setting [7]) was determined as 32 µg/mL (≈ 19 µM); against E. faecalis E7406, 0.25 µg/mL (≈ 0.149 µM); with E. faecalis E7604, 0.25 µg/mL (≈ 0.149 µM); in the test on S. pneumoniae 153 it was 0.016 µg/mL (≈ 0.00952 µM); in the test with MRSA USA300 it was 0.063 µg/mL.

Consider `CCCCCCCCCCNC(N)=Nc1ccc(CN[C@@]2(C)C[C@H](O[C@H]3[C@H](Oc4c5cc6cc4Oc4ccc(cc4Cl)[C@@H](O)[C@@H](NC(=O)[C@@H](CC(C)C)NC)C(=O)N[C@@H](CC(N)=O)C(=O)N[C@H]6C(=O)N[C@H]4C(=O)N[C@H](C(=O)N[C@H](C(=O)O)c6cc(O)cc(O)c6-c6cc4ccc6O)[C@H](O)c4ccc(c(Cl)c4)O5)O[C@H](CO)[C@@H](O)[C@@H]3O)O[C@@H](C)[C@H]2O)cc1` [Compound 8], for which the MIC in test [1] was 0.25 µg/mL (≈ 0.144 µM); against S. aureus ATCC29213, 0.01562 µg/mL (≈ 0.00899 µM); in [2] it was 0.062 µg/mL (≈ 0.0357 µM); in [3], 0.016 µg/mL (≈ 0.00921 µM); in test [4], at most 0.008 µg/mL; in test [5] it was 0.063 µg/mL (≈ 0.0363 µM). For the same compound, the MIC in the test with S. aureus USA300 (MRSA USA300, TSB + 0.002% p80) was 0.063 µg/mL; against S. aureus USA300 (S. aureus USA300 MRSA), 0.0625 µg/mL (≈ 0.036 µM); in the test with E. faecium E980 it was 0.01562 µg/mL (≈ 0.00899 µM); against E. faecium E155 it was 0.25 µg/mL (≈ 0.144 µM); against E. faecium E7314 it was at most 0.007812 µg/mL; with E. faecalis E1246 (setting [6]) it was 1 µg/mL (≈ 0.576 µM). For the same compound, the MIC with E. faecalis E1246 (setting [7]) was 1 µg/mL (≈ 0.576 µM); in the test on E. faecalis E7406, at most 0.007812 µg/mL; with E. faecalis E7604, at most 0.008 µg/mL; in the test with S. pneumoniae 153, at most 0.008 µg/mL; in the test on MRSA USA300 it was 0.125 µg/mL.

As to Teicoplanin [reference compound], the MIC in [1] turned out to be 16 µg/mL; against S. aureus ATCC29213, 0.5 µg/mL; in test [2] it was 4 µg/mL; in test [3], 16 µg/mL; in test [4], 0.5 µg/mL; in test [5] it was 32 µg/mL. The MIC with S. aureus USA300 (MRSA USA300, TSB + 0.002% p80) was 0.5 µg/mL; in the test on S. aureus USA300 (S. aureus USA300 MRSA), 0.5 µg/mL; in the test with E. faecium E980, 0.5 µg/mL; in the test on E. faecium E7314 it was 0.25 µg/mL; against E. faecalis E1246 (setting [6]), above 128 µg/mL; against E. faecalis E1246 (setting [7]) it was above 128 µg/mL. Further, the MIC against E. faecalis E7406 is 0.125 µg/mL; against E. faecalis E7604, 0.125 µg/mL; in the test with S. pneumoniae 153, 0.031 µg/mL; with MRSA USA300 it was 2 µg/mL.
